Source: paper PMC2824672, “Identification of inhibitors of Plasmodium falciparum phosphoethanolamine methyltransferase using an enzyme-coupled transmethylation assay” (2010)

Tests used:
[1] = molecular target: T1, phosphoethanolamine methyltransferase, PfPMT (Plasmodium falciparum, UniProt Q8IDQ9); test: 1H-15N HSQC NMR titration; also inhibition of purified enzyme in coupled assay; type: binding
T1 construct: gene PMT; recombinant 6His-tagged PfPMT (266 residues), 15N-labeled for NMR

[2] = molecular target: T2, phosphoethanolamine methyltransferase, PfPMT (Plasmodium falciparum, UniProt Q8IDQ9); test: 1H-15N HSQC NMR titration (weak; no enzyme inhibition at […]); type: binding; parameters: gene PMT; recombinant 6His-tagged PfPMT, 15N-labeled for NMR
T2 sequence (Q8IDQ9 1-266): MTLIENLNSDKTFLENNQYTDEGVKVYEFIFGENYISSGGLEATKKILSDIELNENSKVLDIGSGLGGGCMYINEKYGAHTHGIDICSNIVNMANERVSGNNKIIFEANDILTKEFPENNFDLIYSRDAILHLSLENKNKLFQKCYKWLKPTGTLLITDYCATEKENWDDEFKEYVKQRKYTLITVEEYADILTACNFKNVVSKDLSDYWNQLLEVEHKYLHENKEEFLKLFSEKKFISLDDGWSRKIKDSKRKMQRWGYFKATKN

[3] = molecular target: T2, phosphoethanolamine methyltransferase, PfPMT; test: enzyme-coupled spectrophotometric methyltransferase assay; type: biochemical; parameters: gene PMT; recombinant purified PfPMT (pET-15b)
[4] = molecular target: T2, phosphoethanolamine methyltransferase, PfPMT; test: enzyme-coupled assay, substrate turnover by purified enzyme; type: biochemical; parameters: gene PMT; recombinant purified PfPMT (pET-15b)
[5] = molecular target: T2, phosphoethanolamine methyltransferase, PfPMT; test: enzyme-coupled assay, co-substrate turnover by purified enzyme; type: biochemical; parameters: gene PMT; recombinant purified PfPMT (pET-15b)

## CCN(CC)Cc1cc(Nc2ccnc3cc(Cl)ccc23)ccc1O [AQ, amodiaquine]
[1]
  inhibition at 5 µM: 60%

## CCN(CC)CCCC(C)Nc1ccnc2cc(Cl)ccc12 (stereo not shown) [CQ, chloroquine]
[2]
  1H-15N HSQC NMR titration (weak; no enzyme inhibition at 200 μM): indicating site-specific binding, the affinity of CQ for PfPMT is much lower than that of AQ

## CCCCCCCCCCCC[N+](C)(C)C [DDTA, Dodecyltrimethylammonium bromide]
[3]
  inhibition at 500 µM: 25%

## CCCCCCCCCCCCCCCC[N+](C)(C)C [HDTA, Hexadecyltrimethylammonium bromide]
[3]
  inhibition at 100 µM: ~50%

## CCCCCCCCCCCCCCCCOP(=O)([O-])OCC[N+](C)(C)C [HePC, Miltefosine]
[3]
  inhibition at 100 µM: ~60%

## NCCOP(=O)(O)O [P-EA, phosphoethanolamine]
[4]
  enzyme-coupled assay, substrate turnover by purified enzyme: PfPMT activity increased proportionally to the concentration of these substrates

## C[S+](CC[C@H](N)C(=O)[O-])C[C@H]1O[C@@H](n2cnc3c(N)ncnc32)[C@H](O)[C@@H]1O (stereo partly shown) [SAM, S-adenosylmethionine]
[5]
  enzyme-coupled assay, co-substrate turnover by purified enzyme: The effect of increasing concentrations of the substrate P-EA and co-substrate SAM on PfPMT activity was also measured.
